Among the test systems are NCI/ADR-RES; OVCAR-8; Malme-3M; NCI-H226; MOLT-4; EKVX; HCT-116; NCI-H522; A498; NCI-H23; RPMI-8226; SK-MEL-2; UACC-62; HT-29; OVCAR-3; MCF7; ACHN; M14; SR; 786-0.
Test in all cases: NCI anticancer screen, dose series, 48 h

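Following 48 hours of exposure in 96-well plates, responses at five concentrations were used to interpolate endpoints linearly. The concentration for 50% growth inhibition is given as GI50.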 Active and inactive are the calls of the source. Rule as the data show it: active = GI50 up to about 1.1 µM and inactive = higher.

As to `COC(=O)C(C/C=C(\C)c1ccccc1)C(C)=O` (centres undefined), the GI50 was 54.6 µM (inactive) with NCI/ADR-RES; > 100 µM (inactive) in the assay with OVCAR-8; > 100 µM (inactive) in the assay with Malme-3M; > 72.6 µM (inactive) in the assay on NCI-H226; 16.4 µM (inactive) with MOLT-4; > 100 µM (inactive) in the assay with EKVX. Besides, the GI50 was 57.1 µM (inactive) in the assay with HCT-116; 76.7 µM (inactive) in the assay on NCI-H522; > 100 µM (inactive) with A498; 90.6 µM (inactive) with NCI-H23; 27.2 µM (inactive) in the assay on RPMI-8226; 52.7 µM (inactive) in the assay with SK-MEL-2. The GI50 is > 63.4 µM (inactive) in the assay with UACC-62, 83.9 µM (inactive) with HT-29, 50.6 µM (inactive) in the assay with OVCAR-3 and > 70.3 µM (inactive) with MCF7.

Take `COC(=O)C1=C(C(=O)OC)SC2(S1)C1=C(CCC1)SC(C(=O)OC)=C2C(=O)OC`: the GI50 in the assay with NCI/ADR-RES was 18.8 µM (inactive); with OVCAR-8 it was 10.2 µM (inactive); in the assay with ACHN, 12.3 µM (inactive); in the assay on M14, 18.3 µM (inactive); with Malme-3M, 17.9 µM (inactive); in the assay on MOLT-4, 2.29 µM (inactive). Besides, the GI50 with EKVX was 14.9 µM (inactive); in the assay with HCT-116, 1.77 µM (inactive); in the assay with NCI-H522 it was 2.99 µM (inactive); in the assay with A498 it was 9.12 µM (inactive); with NCI-H23, 18.6 µM (inactive); with RPMI-8226 it was 1.86 µM (inactive). Also, the GI50 was 18.8 µM (inactive) with SK-MEL-2; 15 µM (inactive) in the assay with UACC-62; 4.58 µM (inactive) in the assay on HT-29; 12.2 µM (inactive) in the assay with OVCAR-3; 4.33 µM (inactive) in the assay with MCF7.

Consider `NS(=O)(=O)c1ccc(NC(=O)C2C(=O)C(=O)N(c3ccc(S(N)(=O)=O)cc3)C2=O)cc1` (centres undefined), for which the GI50 with SR, in the assay on OVCAR-8, in the assay on ACHN, in the assay on M14, in the assay on Malme-3M and in the assay on NCI-H226 was > 100 µM (inactive) each time. Also, the GI50 with MOLT-4, in the assay with EKVX, in the assay with HCT-116, with NCI-H522, with 786-0 and in the assay on A498 was > 100 µM (inactive) throughout. For the same compound, the GI50 with NCI-H23, in the assay with RPMI-8226, in the assay on SK-MEL-2, with UACC-62, with HT-29 and in the assay with OVCAR-3 was > 100 µM (inactive) throughout.

Turning to `COC1=C2CC(C)CC(OC)C(O)C(C)/C=C(\C)C(OC(N)=O)C(OC)/C=C\C=C(/C)C(=O)NC(=C(/C=N/N3CCCCC3)C1=O)C2=O` (centres undefined), the GI50 with SR is 2.59 µM (inactive); in the assay with OVCAR-8 it was 3.83 µM (inactive); in the assay with ACHN it was 15.4 µM (inactive); with M14, 18.7 µM (inactive); in the assay with Malme-3M, 15.2 µM (inactive); in the assay with NCI-H226, 12.4 µM (inactive). Moreover, the GI50 with MOLT-4 was 2.62 µM (inactive); in the assay with EKVX, 8.43 µM (inactive); with HCT-116, 3.25 µM (inactive); in the assay on NCI-H522 it was 2.55 µM (inactive); in the assay on 786-0, 10.2 µM (inactive); with A498, 23.9 µM (inactive). For the same compound, the GI50 is 15.8 µM (inactive) with NCI-H23; 5.55 µM (inactive) in the assay with RPMI-8226; 17 µM (inactive) in the assay on SK-MEL-2; 18.6 µM (inactive) in the assay with UACC-62; 6.55 µM (inactive) in the assay with HT-29; 2.15 µM (inactive) with OVCAR-3.

As to `Fc1ccc(Nc2nnc(-c3ccccn3)s2)cc1`, the GI50 with NCI/ADR-RES, in the assay on OVCAR-8, in the assay on ACHN, with M14, in the assay on Malme-3M and with MOLT-4 was > 100 µM (inactive) each time. For the same compound, the GI50 in the assay on EKVX, in the assay on HCT-116, in the assay with NCI-H522, in the assay with 786-0, in the assay with A498 and in the assay with NCI-H23 was > 100 µM (inactive) each time. The GI50 was > 100 µM (inactive) in the assay on RPMI-8226; > 100 µM (inactive) in the assay with SK-MEL-2; > 100 µM (inactive) in the assay on UACC-62; > 100 µM (inactive) in the assay on HT-29; > 100 µM (inactive) in the assay on OVCAR-3; 3.47 µM (inactive) in the assay with MCF7.

Take `CCOC(=O)c1sc2nc(SC)nc3c2c1NCN3C`: the GI50 is 19.6 µM (inactive) with NCI/ADR-RES; 10.7 µM (inactive) in the assay with OVCAR-8; 18.7 µM (inactive) in the assay with ACHN; 76.9 µM (inactive) in the assay on M14; 24.8 µM (inactive) in the assay with Malme-3M; 31.7 µM (inactive) in the assay with NCI-H226. For the same compound, the GI50 was 22 µM (inactive) in the assay on HCT-116; 15.2 µM (inactive) in the assay on 786-0; 15.2 µM (inactive) in the assay with A498; 22 µM (inactive) in the assay with NCI-H23; > 100 µM (inactive) with RPMI-8226; 86.1 µM (inactive) with SK-MEL-2. Besides, the GI50 with UACC-62 was 42.7 µM (inactive); in the assay on HT-29 it was > 100 µM (inactive); in the assay on OVCAR-3, > 100 µM (inactive).

For `O=C1OC(c2ccco2)=N/C1=C\c1ccc(Cl)c(Cl)c1`, the GI50 was > 100 µM (inactive) with SR; 56.2 µM (inactive) with OVCAR-8; 60 µM (inactive) in the assay with ACHN; > 100 µM (inactive) in the assay on M14; 86.1 µM (inactive) with Malme-3M; 57.5 µM (inactive) in the assay on NCI-H226. Also, the GI50 was > 100 µM (inactive) in the assay on MOLT-4; 75.9 µM (inactive) with EKVX; 72.8 µM (inactive) with HCT-116; 51.4 µM (inactive) with NCI-H522; 38 µM (inactive) in the assay with 786-0; > 100 µM (inactive) in the assay on A498. For the same compound, the GI50 in the assay with NCI-H23 is > 100 µM (inactive); with RPMI-8226 it was > 100 µM (inactive); with SK-MEL-2 it was > 100 µM (inactive); in the assay on UACC-62, > 100 µM (inactive); in the assay on HT-29, > 100 µM (inactive); in the assay with OVCAR-3, 89.7 µM (inactive). For the same compound, the GI50 in the assay on MCF7 was 3.67 µM (inactive).

As to `O=C(c1ccccc1O)c1cc(-c2ncc3c(=O)c4ccccc4oc3n2)c(-c2ccccc2O)[nH]c1=O`, the GI50 in the assay with NCI/ADR-RES was 31.7 µM (inactive); in the assay on OVCAR-8, 30.7 µM (inactive); in the assay with Malme-3M it was 30 µM (inactive); in the assay on NCI-H226, 15 µM (inactive); in the assay on MOLT-4, 18.1 µM (inactive); in the assay on EKVX it was 36.5 µM (inactive). The GI50 in the assay on HCT-116 was 20.7 µM (inactive); with NCI-H522, 25.2 µM (inactive); in the assay with A498 it was 21.3 µM (inactive); in the assay on NCI-H23 it was 19.7 µM (inactive); in the assay on RPMI-8226, 20.1 µM (inactive); with SK-MEL-2, 22.1 µM (inactive). For the same compound, the GI50 with UACC-62 is 22.9 µM (inactive); in the assay with HT-29 it was 28.2 µM (inactive); in the assay on OVCAR-3, 24 µM (inactive); in the assay on MCF7 it was 14.3 µM (inactive).

As for `CC(C)(C)CC(C)(C)c1cc(O)c(O)c(CN2CCCCC2)c1`, the GI50 is 5.09 µM (inactive) in the assay with NCI/ADR-RES; 15.6 µM (inactive) in the assay on OVCAR-8; 12.9 µM (inactive) in the assay on ACHN; 15.6 µM (inactive) in the assay on M14; 12.8 µM (inactive) with Malme-3M; 16.7 µM (inactive) with NCI-H226. In addition, the GI50 was 4.35 µM (inactive) in the assay on MOLT-4; 12.7 µM (inactive) with EKVX; 15.3 µM (inactive) in the assay with HCT-116; 10.8 µM (inactive) with NCI-H522; 13.4 µM (inactive) in the assay with 786-0; 14.3 µM (inactive) in the assay with A498. The GI50 was 16.1 µM (inactive) with NCI-H23; 12.8 µM (inactive) in the assay with RPMI-8226; 16.3 µM (inactive) with UACC-62; 5.69 µM (inactive) in the assay with HT-29; 14.7 µM (inactive) in the assay with OVCAR-3; 12.5 µM (inactive) with MCF7.

As to `O=C(/C=C/c1ccccc1O)/C=C/c1ccccc1O`, the GI50 with SR is 0.526 µM (active); in the assay with NCI/ADR-RES, 2.14 µM (inactive); in the assay with OVCAR-8 it was 2.26 µM (inactive); with ACHN it was 1.8 µM (inactive); in the assay on M14, 1.71 µM (inactive); in the assay with Malme-3M, 2.11 µM (inactive). Besides, the GI50 in the assay with MOLT-4 is 1.26 µM (inactive); with HCT-116, 0.332 µM (active); in the assay on 786-0, 1.69 µM (inactive); in the assay on A498, 1.82 µM (inactive); in the assay with NCI-H23 it was 1.53 µM (inactive); with RPMI-8226, 0.19 µM (active). Also, the GI50 is 9.25 µM (inactive) with SK-MEL-2, 1.67 µM (inactive) with UACC-62, 1.92 µM (inactive) in the assay on HT-29 and 0.352 µM (active) in the assay on OVCAR-3.

With `O=C(O)CC(O)(C(=O)O)C(O)C(=O)O` (centres undefined), the GI50 with NCI/ADR-RES, with OVCAR-8, in the assay with ACHN, in the assay on M14, in the assay on Malme-3M and in the assay with NCI-H226 was > 1000 µM (inactive) throughout. The GI50 with MOLT-4, in the assay with EKVX, with HCT-116, with NCI-H522, with 786-0 and in the assay on NCI-H23 was > 1000 µM (inactive) in each case. In addition, the GI50 with RPMI-8226 was 787 µM (inactive); in the assay with SK-MEL-2, > 1000 µM (inactive); with UACC-62 it was 933 µM (inactive); in the assay with HT-29 it was > 1000 µM (inactive); in the assay with OVCAR-3 it was > 1000 µM (inactive); in the assay on MCF7, > 1000 µM (inactive).
